# Source: ChEMBL document CHEMBL2439977, “Discovery of novel bacterial RNA polymerase inhibitors: pharmacophore-based virtual screening and hit optimization” (J Med Chem, 2013)
# The source made the active and inactive calls. No cut-off for these calls is given here.
# Columns and labels:
# [1] = Inhibition of Escherichia coli RNA polymerase by transcription assay
# Escherichia coli [2] = assay: Antibacterial activity against Escherichia coli expressing TolC mutant; type: functional
# Escherichia coli [3] = assay: Inhibition of lipid synthesis in Escherichia coli expressing TolC mutant at 4 times MIC after 45 mins; type: functional, organism-based
# Escherichia coli [4] = assay: Antibacterial activity against Escherichia coli K-12; type: functional
# [5] = Inhibition of Escherichia coli RNA polymerase core enzyme by transcription assay
# Staphylococcus aureus = assay: Antibacterial activity against Staphylococcus aureus; type: functional
# Escherichia coli [6] = assay: Induction of resistant frequency in Escherichia coli expressing TolC mutant at 2 times MIC treated for every 3 days; type: functional, organism-based
# Escherichia coli [7] = assay: Inhibition of DNA synthesis in Escherichia coli expressing TolC mutant at 4 times MIC after 45 mins; type: functional, organism-based
# Bacillus subtilis = assay: Antibacterial activity against Bacillus subtilis; type: functional
# [8] = Inhibition of Escherichia coli RNA polymerase-RNA polymerase sigma factor RpoD interaction by ELISA
# Escherichia coli [9] = assay: Inhibition of RNA synthesis in Escherichia coli expressing TolC mutant at 4 times MIC after 45 mins; type: functional, organism-based
# Pseudomonas aeruginosa = assay: Antibacterial activity against Pseudomonas aeruginosa PAO1; type: functional
# Escherichia coli [10] = assay: Ratio of IC50 for Escherichia coli RNA polymerase core enzyme to IC50 for Escherichia coli RNA polymerase holo enzyme
# Escherichia coli [11] = assay: Inhibition of protein synthesis in Escherichia coli expressing TolC mutant at 4 times MIC after 45 mins; type: functional, organism-based
# [12] = Inhibition of Escherichia coli RNA polymerase holo enzyme by transcription assay
# Escherichia coli [13] = assay: Inhibition of Escherichia coli RNA polymerase-RNA polymerase sigma factor RpoD interaction at 10 uM by ELISA
# Escherichia coli [14] = assay: Inhibition of Escherichia coli RNA polymerase-RNA polymerase sigma factor RpoD interaction at 50 uM by ELISA
# Escherichia coli [15] = assay: Inhibition of Escherichia coli RNA polymerase at 50 uM by transcription assay
# Escherichia coli [16] = assay: Inhibition of Escherichia coli RNA polymerase at 200 uM by transcription assay
smiles,measurement,setting,value
O=C(Nc1cc(C(F)(F)F)ccc1C(=O)O)c1ccc(-c2ccccc2)cc1,IC50,[1]; read-out: IC50,27 µM
same,MIC,Escherichia coli [2],5 µg/mL
O=C(Nc1c(Cl)cccc1C(=O)O)c1ccc(-c2ccccc2)cc1,IC50,[1],Not Active
same,MIC,Escherichia coli [2],55 µg/mL
O=C(Nc1ccc(-c2ccccc2)cc1C(=O)O)c1cccc(Oc2ccccc2)c1,inhibition,Escherichia coli [3],inactive
same,MIC,Escherichia coli [4],> 25 µg/mL
same,IC50,[5],27 µM
same,MIC,Staphylococcus aureus,6 µg/mL
same,Activity,Escherichia coli [6],Active
same,inhibition,Escherichia coli [7],inactive
same,MIC,Bacillus subtilis,3 µg/mL
same,IC50,[8],47 µM
same,inhibition,Escherichia coli [9],inactive
same,MIC,Pseudomonas aeruginosa,> 25 µg/mL
same,Ratio IC50,Escherichia coli [10],2.8
same,IC50,[1]; read-out: IC50,13 µM
same,inhibition,Escherichia coli [11],inactive
same,IC50,[12],16 µM
same,MIC,Escherichia coli [2],2 µg/mL
O=C(Nc1cc(Br)ccc1C(=O)O)c1ccc(-c2ccccc2)cc1,IC50,[5],39 µM
same,IC50,[8],68 µM
same,Ratio IC50,Escherichia coli [10],3
same,IC50,[1]; read-out: IC50,28 µM
same,IC50,[12],27 µM
same,MIC,Escherichia coli [2],2 µg/mL
CO[C@H]1/C=C/O[C@@]2(C)Oc3c(C)c(O)c4c(O)c(c(/C=N/N5CCN(C)CC5)c(O)c4c3C2=O)NC(=O)/C(C)=C\C=C\[C@H](C)[C@H](O)[C@@H](C)[C@@H](O)[C@@H](C)[C@H](OC(C)=O)[C@@H]1C [RIFAMPIN],MIC,Escherichia coli [4],7 µg/mL
same,IC50,[5],0.016 µM
same,MIC,Staphylococcus aureus,0.02 µg/mL
same,inhibition,Escherichia coli [13],< 5%
same,Activity,Escherichia coli [6],Active
same,MIC,Bacillus subtilis,5 µg/mL
same,MIC,Pseudomonas aeruginosa,13 µg/mL
same,Ratio IC50,Escherichia coli [10],1
same,IC50,[1]; read-out: IC50,0.03 µM
same,IC50,[12],0.027 µM
same,MIC,Escherichia coli [2],10 µg/mL
O=C(Nc1cccc(Cl)c1C(=O)O)c1ccc(-c2ccccc2)cc1,inhibition,Escherichia coli [14],< 10%
same,IC50,[1],Not Active
same,MIC,Escherichia coli [2],57 µg/mL
O=C(Nc1ccc(C(F)(F)F)cc1C(=O)O)c1ccc(-c2ccccc2)cc1,MIC,Escherichia coli [4],> 50 µg/mL
same,IC50,[5],67 µM
same,MIC,Staphylococcus aureus,5 µg/mL
same,Activity,Escherichia coli [6],Active
same,MIC,Bacillus subtilis,4 µg/mL
same,IC50,[8],60 µM
same,MIC,Pseudomonas aeruginosa,> 50 µg/mL
same,Ratio IC50,Escherichia coli [10],4
same,IC50,[1]; read-out: IC50,28 µM
same,IC50,[12],28 µM
same,MIC,Escherichia coli [2],2 µg/mL
O=C(Nc1cc([N+](=O)[O-])ccc1C(=O)O)c1ccc(-c2ccccc2)cc1,IC50,[1]; read-out: IC50,36 µM
same,MIC,Escherichia coli [2],> 25 µg/mL
O=C(Nc1ccc(F)cc1C(=O)O)c1cccc(Oc2ccccc2)c1,MIC,Escherichia coli [4],> 100 µg/mL
same,MIC,Staphylococcus aureus,48 µg/mL
same,MIC,Bacillus subtilis,4 µg/mL
same,MIC,Pseudomonas aeruginosa,> 100 µg/mL
same,IC50,[1]; read-out: IC50,98 µM
same,MIC,Escherichia coli [2],5 µg/mL
O=C(Nc1cc(Cl)ccc1C(=O)O)c1ccc(-c2ccccc2)cc1,MIC,Escherichia coli [4],> 50 µg/mL
same,MIC,Staphylococcus aureus,24 µg/mL
same,MIC,Bacillus subtilis,2 µg/mL
same,MIC,Pseudomonas aeruginosa,> 50 µg/mL
same,IC50,[1]; read-out: IC50,37 µM
same,MIC,Escherichia coli [2],3 µg/mL
C=CCN1C(=O)/C(=C/c2ccc(-c3cccc(C(=O)O)c3)o2)SC1=S,IC50,[5],57 µM
same,IC50,[8],30 µM
same,Ratio IC50,Escherichia coli [10],2.6
same,IC50,[12],38 µM
N#Cc1ccc(NC(=O)c2ccc(-c3ccccc3)cc2)c(C(=O)O)c1,inhibition,Escherichia coli [15],23%
same,MIC,Escherichia coli [2],7 µg/mL
O=C(Nc1ccc(OC(F)(F)F)cc1C(=O)O)c1ccc(-c2ccccc2)cc1,IC50,[1]; read-out: IC50,31 µM
same,MIC,Escherichia coli [2],4 µg/mL
COc1cccc(NC(=O)c2ccc(-c3ccccc3)cc2)c1C(=O)O,IC50,[1],Not Active
same,MIC,Escherichia coli [2],58 µg/mL
O=C(Nc1ccc(Br)cc1C(=O)O)c1cccc(Cc2ccccc2)c1,IC50,[1]; read-out: IC50,37 µM
same,MIC,Escherichia coli [2],2 µg/mL
Cc1ccc(NC(=O)c2ccc(-c3ccccc3)cc2)c(C(=O)O)c1,IC50,[1]; read-out: IC50,139 µM
same,MIC,Escherichia coli [2],7 µg/mL
O=C(Nc1cc(Cl)ccc1C(=O)O)c1ccc(-c2ccccc2)c(Oc2ccccc2)c1,IC50,[5],12 µM
same,IC50,[8],33 µM
same,Ratio IC50,Escherichia coli [10],2.9
same,IC50,[1]; read-out: IC50,9 µM
same,IC50,[12],7 µM
same,MIC,Escherichia coli [2],> 25 µg/mL
O=C(Nc1ccccc1C(=O)O)c1ccc(-c2ccccc2)cc1,inhibition,Escherichia coli [16],31%
same,MIC,Escherichia coli [2],13 µg/mL
COc1ccc(C(=O)O)c(NC(=O)c2ccc(-c3ccccc3)cc2)c1,IC50,[1]; read-out: IC50,162 µM
same,MIC,Escherichia coli [2],9 µg/mL
COc1cc(NC(=O)c2ccc(-c3ccccc3)cc2)c(C(=O)O)cc1OC,inhibition,Escherichia coli [16],35%
same,MIC,Escherichia coli [2],19 µg/mL
O=C(Nc1ccc(Br)cc1C(=O)O)c1ccc(-c2ccccc2)cc1,IC50,[1]; read-out: IC50,31 µM
same,MIC,Escherichia coli [2],3 µg/mL
O=C(Nc1cc(F)ccc1C(=O)O)c1ccc(-c2ccccc2)cc1,IC50,[1]; read-out: IC50,98 µM
same,MIC,Escherichia coli [2],4 µg/mL
O=C(Nc1ccccc1C(=O)O)c1cccc(Oc2ccccc2)c1,inhibition,Escherichia coli [16],23%
same,MIC,Escherichia coli [2],9 µg/mL
O=C(Nc1cc(F)ccc1C(=O)O)c1ccc(-c2ccccc2)c(Oc2ccccc2)c1,MIC,Escherichia coli [4],> 25 µg/mL
same,MIC,Staphylococcus aureus,17 µg/mL
same,MIC,Bacillus subtilis,> 25 µg/mL
same,MIC,Pseudomonas aeruginosa,> 25 µg/mL
same,IC50,[1]; read-out: IC50,13 µM
same,MIC,Escherichia coli [2],> 25 µg/mL
CCCC/C(C)=C/C=C(\C)C(=O)c1c(O)cc([C@H](C)CC/C=C/NC(=O)OC)oc1=O [MYXOPYRONIN B],MIC,Escherichia coli [4],> 25 µg/mL
same,MIC,Staphylococcus aureus,0.5 µg/mL
same,MIC,Bacillus subtilis,0.9 µg/mL
same,MIC,Pseudomonas aeruginosa,> 25 µg/mL
same,IC50,[1]; read-out: IC50,0.35 µM
same,MIC,Escherichia coli [2],1 µg/mL
COc1cc(NC(=O)c2cccc(Oc3ccccc3)c2)c(C(=O)O)cc1OC,IC50,[1]; read-out: IC50,154 µM
same,MIC,Escherichia coli [2],6 µg/mL
O=C(Nc1ccccc1C(=O)O)c1ccc(-c2ccccc2)c(Oc2ccccc2)c1,IC50,[5],36 µM
same,inhibition,Escherichia coli [16],100%
same,IC50,[8],41 µM
same,Ratio IC50,Escherichia coli [10],3
same,IC50,[1]; read-out: IC50,20 µM
same,IC50,[12],20 µM
same,MIC,Escherichia coli [2],13 µg/mL
O=C(Nc1ccc(O)cc1C(=O)O)c1ccc(-c2ccccc2)cc1,inhibition,Escherichia coli [16],17%
same,MIC,Escherichia coli [2],31 µg/mL
O=C(Nc1cc(-c2ccccc2)ccc1C(=O)O)c1cccc(Oc2ccccc2)c1,IC50,[1]; read-out: IC50,14 µM
same,MIC,Escherichia coli [2],8 µg/mL
O=C(Nc1cc(Br)ccc1C(=O)O)c1cccc(Oc2ccccc2)c1,MIC,Escherichia coli [4],> 25 µg/mL
same,MIC,Staphylococcus aureus,8 µg/mL
same,MIC,Bacillus subtilis,3 µg/mL
same,MIC,Pseudomonas aeruginosa,> 25 µg/mL
same,IC50,[1]; read-out: IC50,34 µM
same,MIC,Escherichia coli [2],3 µg/mL
O=C(Nc1ccccc1C(=O)O)c1ccccc1,IC50,[1],Not Active
same,MIC,Escherichia coli [2],> 100 µg/mL
O=C(Nc1ccc(Br)cc1C(=O)O)c1cccc(Oc2ccccc2)c1,IC50,[1]; read-out: IC50,34 µM
same,MIC,Escherichia coli [2],3 µg/mL
O=C(Nc1ccc(F)cc1C(=O)O)c1ccc(-c2ccccc2)cc1,IC50,[1]; read-out: IC50,138 µM
same,MIC,Escherichia coli [2],7 µg/mL
O=C(Nc1ccc(Cl)cc1C(=O)O)c1ccc(-c2ccccc2)cc1,IC50,[1]; read-out: IC50,46 µM
same,MIC,Escherichia coli [2],2 µg/mL
O=C(Nc1cc(Cl)ccc1C(=O)O)c1cccc(Oc2ccccc2)c1,MIC,Escherichia coli [4],> 50 µg/mL
same,MIC,Staphylococcus aureus,14 µg/mL
same,MIC,Bacillus subtilis,3 µg/mL
same,MIC,Pseudomonas aeruginosa,> 50 µg/mL
same,IC50,[1]; read-out: IC50,44 µM
same,MIC,Escherichia coli [2],3 µg/mL
O=C(Nc1cccc(F)c1C(=O)O)c1ccc(-c2ccccc2)cc1,inhibition,Escherichia coli [16],14%
same,MIC,Escherichia coli [2],34 µg/mL
COc1ccc(NC(=O)c2ccc(-c3ccccc3)cc2)c(C(=O)O)c1,inhibition,Escherichia coli [16],52%
same,MIC,Escherichia coli [2],8 µg/mL
CCCN(CCC)S(=O)(=O)c1ccc(C(=O)Nc2cc3ccccc3cc2C(=O)O)cc1,IC50,[5],81 µM
same,IC50,[8],97 µM
same,Ratio IC50,Escherichia coli [10],2.6
same,IC50,[12],52 µM
